Experimental findings from ChEMBL document CHEMBL4813981, “Synthesis and in vitro antibacterial activity of new aminothiazole-oximepiperidone cephalosporins” (2021) are described below.

The test system of assay [1] is Acinetobacter baumannii. Nature of the assay: Bactericidal activity against Carbapenem- resistant Acinetobacter baumannii 17-3 assessed as reduction in bacterial growth. Format: functional.
For assay [2], the system named is Klebsiella aerogenes. In words: Bactericidal activity against Enterobacter aerogenes 17-3 assessed as reduction in bacterial growth. Format: functional.
For assay [3], the system named is Enterobacter cloacae. In words: Bactericidal activity against Enterobacter cloacae 17-8 assessed as reduction in bacterial growth. The class given is functional.
Assay [4] relates to Enterobacter cloacae. In words: Bactericidal activity against Enterobacter cloacae 17-3 assessed as reduction in bacterial growth. Format: functional.
In assay [5] the test system is Klebsiella aerogenes. In words: Antibacterial activity against Enterobacter aerogenes 17-4 assessed as reduction in bacterial growth.
The subject of assay [6] is Escherichia coli. In words: Ratio of MBC to MIC for ESBLs positive carbapenem-negative Escherichia coli 17-18 assessed as reduction in bacterial growth in the presence of Avibactam. The class given is functional.
In assay [7] the test system is Klebsiella pneumoniae. In words: Antibacterial activity against ESBLs positive Carbapenem-sensitive Klebsiella pneumoniae 17-5 assessed as reduction in bacterial growth in the presence of Avibactam. Format: functional.
Assay [8] relates to Enterobacter cloacae. Nature of the assay: Ratio of MBC to MIC for Enterobacter cloacae 17-9 assessed as reduction in bacterial growth. The class given is functional.
Assay [9] deals with Escherichia coli. Nature of the assay: Antibacterial activity against ESBLs positive Carbapenem-sensitive Escherichia coli 17-8 assessed as reduction in bacterial growth in the presence of Avibactam. The class given is functional.
Assay [10] concerns Enterobacter cloacae. In words: Ratio of MBC to MIC for Enterobacter cloacae 17-9 assessed as reduction in bacterial growth in the presence of Avibactam. The class given is functional.
Assay [11] deals with Klebsiella pneumoniae. In words: Ratio of MBC to MIC for ESBLs positive Carbapenem-sensitive Klebsiella pneumoniae 17-6 assessed as reduction in bacterial growth. Format: functional.
Assay [12] has as its system Escherichia coli. In words: Ratio of MBC to MIC for ESBLs positive Carbapenem-sensitive Escherichia coli 17-18 assessed as reduction in bacterial growth. The class given is functional.
Assay [13] has as its system Escherichia coli. Nature of the assay: Antibacterial activity against ESBLs positive Carbapenem-sensitive Escherichia coli 17-21 assessed as reduction in bacterial growth in the presence of Avibactam. Format: functional.
The test system of assay [14] is Klebsiella pneumoniae. In words: Antibacterial activity against ESBLs positive Carbapenem-sensitive Klebsiella pneumoniae 17-10 assessed as reduction in bacterial growth in the presence of Avibactam. The class given is functional.
Assay [15] relates to Klebsiella aerogenes. Nature of the assay: Ratio of MBC to MIC for Enterobacter aerogenes 17-3 assessed as reduction in bacterial growth in the presence of Avibactam. Format: functional.
The test system of assay [16] is Pseudomonas aeruginosa. Nature of the assay: Ratio of MBC to MIC for carbapenem-sensitive Pseudomonas aeruginosa 17-10 assessed as reduction in bacterial growth. The class given is functional.
Assay [17] relates to Klebsiella aerogenes. Nature of the assay: Ratio of MBC to MIC for Enterobacter aerogenes 17-4 assessed as reduction in bacterial growth. Format: functional.
Assay [18] has as its system Pseudomonas aeruginosa. In words: Ratio of MBC to MIC for carbapenem-sensitive Pseudomonas aeruginosa 17-26 assessed as reduction in bacterial growth. The class given is functional.
In assay [19] the test system is Acinetobacter baumannii. In words: Ratio of MBC to MIC for Carbapenem- resistant Acinetobacter baumannii 17-11 assessed as reduction in bacterial growth in the presence of Avibactam. The class given is functional.
The test system of assay [20] is Escherichia coli. In words: Antibacterial activity against Escherichia coli 15-3 overexpressing extended spectrum beta-lactamases assessed as reduction in bacterial growth in the presence of Avibactam. Format: functional.
Assay [21] relates to Klebsiella aerogenes. Nature of the assay: Antibacterial activity against Enterobacter aerogenes 15-6 assessed as reduction in bacterial growth in the presence of Avibactam. The class given is functional.
Assay [22] relates to Klebsiella pneumoniae. In words: Ratio of MBC to MIC for ESBLs positive Carbapenem-sensitive Klebsiella pneumoniae 17-12 assessed as reduction in bacterial growth. Format: functional.
Assay [23] deals with Klebsiella aerogenes. Nature of the assay: Antibacterial activity against Enterobacter aerogenes 15-4 assessed as reduction in bacterial growth in the presence of Avibactam. The class given is functional.
For assay [24], the system named is Pseudomonas aeruginosa. In words: Ratio of MBC to MIC for carbapenem-sensitive Pseudomonas aeruginosa 17-29 assessed as reduction in bacterial growth. Format: functional.
Assay [25] deals with Enterobacter cloacae. Nature of the assay: Ratio of MBC to MIC for Enterobacter cloacae 17-3 assessed as reduction in bacterial growth. The class given is functional.
Assay [26] concerns Klebsiella aerogenes. In words: Ratio of MBC to MIC for Enterobacter aerogenes 17-1 assessed as reduction in bacterial growth in the presence of Avibactam. The class given is functional.
Assay [27] concerns Klebsiella aerogenes. Nature of the assay: Ratio of MBC to MIC for Enterobacter aerogenes 17-1 assessed as reduction in bacterial growth. The class given is functional.
The test system of assay [28] is Klebsiella pneumoniae. In words: Ratio of MBC to MIC for ESBLs negative Carbapenem-sensitive Klebsiella pneumoniae 17-17 assessed as reduction in bacterial growth in the presence of Avibactam. The class given is functional.
The subject of assay [29] is Klebsiella aerogenes. In words: Ratio of MBC to MIC for Enterobacter aerogenes 15-4 assessed as reduction in bacterial growth. The class given is functional.
Assay [30] deals with Enterobacter cloacae. In words: Ratio of MBC to MIC for Enterobacter cloacae 17-10 assessed as reduction in bacterial growth. The class given is functional.
For assay [31], the system named is Escherichia coli. In words: Ratio of MBC to MIC for ESBLs negative carbapenem-negative Escherichia coli 17-9 assessed as reduction in bacterial growth in the presence of Avibactam. Format: functional.
Assay [32] relates to Klebsiella pneumoniae. In words: Ratio of MBC to MIC for ESBLs positive Carbapenem-sensitive Klebsiella pneumoniae 17-2 assessed as reduction in bacterial growth. The class given is functional.
The test system of assay [33] is Enterobacter cloacae. In words: Antibacterial activity against Enterobacter cloacae 17-3 assessed as reduction in bacterial growth.
For assay [34], the system named is Pseudomonas aeruginosa. Nature of the assay: Antibacterial activity against Carbapenem- sensitive Pseudomonas aeruginosa 17-30 assessed as reduction in bacterial growth in the presence of Avibactam. Format: functional.
Assay [35] has as its system Klebsiella pneumoniae. Nature of the assay: Ratio of MBC to MIC for ESBLs positive Carbapenem-sensitive Klebsiella pneumoniae 17-2 assessed as reduction in bacterial growth in the presence of Avibactam. Format: functional.
Assay [36] concerns Klebsiella aerogenes. In words: Antibacterial activity against Enterobacter aerogenes 17-3 assessed as reduction in bacterial growth.
Assay [37] has as its system Escherichia coli. In words: Ratio of MBC to MIC for ESBLs negative Carbapenem-sensitive Escherichia coli 17-20 assessed as reduction in bacterial growth. The class given is functional.
For assay [38], the system named is Acinetobacter baumannii. In words: Ratio of MBC to MIC for Acinetobacter baumannii NCTC 13304 assessed as reduction in bacterial growth in the presence of Avibactam. The class given is functional.
The test system of assay [39] is Klebsiella pneumoniae. In words: Ratio of MBC to MIC for ESBLs positive Carbapenem-sensitive Klebsiella pneumoniae 17-6 assessed as reduction in bacterial growth in the presence of Avibactam. Format: functional.
The subject of assay [40] is Escherichia coli. In words: Ratio of MBC to MIC for Escherichia coli ATCC 25922 assessed as reduction in bacterial growth in the presence of Avibactam. Format: functional.
Assay [41] has as its system Enterobacter cloacae. Nature of the assay: Ratio of MBC to MIC for Enterobacter cloacae 17-2 assessed as reduction in bacterial growth in the presence of Avibactam. Format: functional.
Assay [42] deals with Escherichia coli. Nature of the assay: Antibacterial activity against ESBLs positive Carbapenem-sensitive Escherichia coli 17-12 assessed as reduction in bacterial growth in the presence of Avibactam. The class given is functional.
For assay [43], the system named is Acinetobacter baumannii. Nature of the assay: Antibacterial activity against Carbapenem- resistant Acinetobacter baumannii 17-3 assessed as reduction in bacterial growth.

Values after ≈ are worked out from the molar mass of the structure shown.

As for `CC(C)(O/N=C(\C(=O)N[C@@H]1C(=O)N2C(C(=O)[O-])=C(C[n+]3ccccc3)CS[C@H]12)c1csc(N)n1)C(=O)O` [CEFTAZIDIME], the MBC (in general, the smallest concentration meeting the test's criterion for killing) in the assay with Acinetobacter baumannii [1] was 64 µg/mL (≈ 117 µM); with Klebsiella aerogenes [2], 1 µg/mL (≈ 1.83 µM); with Enterobacter cloacae [3], 1 µg/mL (≈ 1.83 µM); in the assay with Enterobacter cloacae [4], more than 16 µg/mL. In addition, the minimal inhibitory concentration (MIC) – broadly, the smallest concentration in the dilution series that meets the test's criterion for growth inhibition – with Klebsiella aerogenes [5] is 8 µg/mL (≈ 14.6 µM).

On to `Nc1nc(/C(=N/OCc2cc(=O)c(O)cn2O)C(=O)N[C@@H]2C(=O)N3C(C(=O)O)=CCS[C@H]23)cs1`, for which the Ratio in the assay with Escherichia coli [6] is reported as 2; in the assay with Enterobacter cloacae [8] it was 1; in the assay with Enterobacter cloacae [10], 1; in the assay with Klebsiella pneumoniae [11], 2; in the assay on Escherichia coli [12], 4; in the assay with Klebsiella aerogenes [15] it was 1. The Ratio was 4 in the assay with Pseudomonas aeruginosa [16]; 2 with Klebsiella aerogenes [17]; more than 8 in the assay on Pseudomonas aeruginosa [18]; more than 8 in the assay with Acinetobacter baumannii [19]; 2 with Klebsiella pneumoniae [22]; 4 in the assay with Pseudomonas aeruginosa [24]. Further, the Ratio in the assay on Enterobacter cloacae [25] is on record as 1; in the assay with Klebsiella aerogenes [26], 2; in the assay with Klebsiella aerogenes [27], 2; in the assay on Klebsiella pneumoniae [28], 8; in the assay with Klebsiella aerogenes [29] it was 1; with Enterobacter cloacae [30] it was more than 8. For the same compound, the Ratio in the assay on Escherichia coli [31] is 4; in the assay with Klebsiella pneumoniae [32] it was 1; with Klebsiella pneumoniae [35], 1; in the assay on Escherichia coli [37], more than 8; with Acinetobacter baumannii [38], 1; in the assay with Klebsiella pneumoniae [39], 2. For the same compound, the values for the Ratio in the assay with Escherichia coli [40] and in the assay with Enterobacter cloacae [41] were 2 and 8, respectively. Also, the MIC was 1 µg/mL with Klebsiella pneumoniae [7]; 0.5 µg/mL in the assay with Escherichia coli [9]; 0.5 µg/mL with Escherichia coli [13]; 1 µg/mL in the assay with Klebsiella pneumoniae [14]; 1 µg/mL with Escherichia coli [20]; 0.5 µg/mL with Klebsiella aerogenes [21]. The minimum inhibitory concentration (MIC) is 0.5 µg/mL in the assay on Klebsiella aerogenes [23]; 64 µg/mL (≈ 126 µM) in the assay with Enterobacter cloacae [33]; 0.25 µg/mL with Pseudomonas aeruginosa [34]; 2 µg/mL (≈ 3.93 µM) in the assay on Klebsiella aerogenes [36]; 0.25 µg/mL in the assay on Escherichia coli [42]; more than 64 µg/mL in the assay on Acinetobacter baumannii [43].
